In US6498254B1, “Antiretroviral compounds and compositions” (Uniroyal Chemical Company, Inc., priority 2001, dated 2002):
Converted amounts (≈) assume the structure as drawn. Like-named read-outs stand apart in the source and are kept apart here.

Columns and labels:
HIV-1 (IIIB) = assay: Inhibition of HIV-1 syncytium formation in CEM cells; type: cell-based; details: for EC50: read-out: EC50 (μg/ml) HIV-1; for HIV-1 % Protection: protection of CEM cells against virus-induced cytopathicity at the compound concentration in the previous column
Source text: (§1) The cell type used to determine activity of the compounds of the invention herein, i.e., the test compounds, against HIV was human T-lymphoblast (CEM) cells obtained from the American Tissue Cell Culture Collection (Rockville, Md.). HIV-1 (IIIB) was originally obtained from the culture of persistently HIV-1 infected H9 cells and was provided by R. C. Gallo and M. Popovic (National Cancer Institute, National Institutes of Health, Bethesda, Md.). HIV-2 (ROD) was originally obtained from L. M. Montagnier (Pasteur Institute, Paris, France).
(§2) To determine the antiviral activity of the test compounds, CEM cells were suspended at a cell density of approximately 300,000 cells per ml of culture medium and infected with approximately 100 CClD50 (100 CClD50 being the 50% cell culture infective dose) of HIV-1 (IIIB) or HIV-2 (ROD)). Then 100 μl of the infected cell suspensions was added to 200 μl micro titer plate wells containing 100 μl of appropriate serial (5-fold) dilutions of the test compounds. The inhibitory effect of the test compounds on HIV-1 or HIV-2 syncytium formation in CEM cells was examined microscopically on day four post infection. The 50% effective concentration (EC50) was defined as the test compound concentration that inhibits syncytium formation in the HIV-1 or HIV-2 infected cell cultures by 50%.
(§3) In some cases, the compounds had considerable cytotoxicity to CEM cells which made determination of the EC50 difficult. In these cases, the percent protection of the cells against virus-induced cytopathicity by the test compounds at the indicated compound concentration in the previous column is given.

CMV Davis strain = assay: Activity against HCMV: virus-induced cytopathicity in HEL cells; type: cell-based, human cytomegalovirus (HCMV); details: for IC50: read-out: Antiviral IC50 (μg/ml) Davis strain; for Antiviral % Inhibition Davis strain: estimate of percent protection of HEL cells at the compound concentration
Description: Confluent HEL cells grown in […] microtiter plates were inoculated with CMV at an input of 100 PFU (plaque forming units) per well. After a one to two hour incubation period, residual virus was removed and the infected cells were further incubated with MEM (Minimal Essential Medium) (supplemented with 2% inactivated Fetal Calf Serum (FCS), […], and 0.3% sodium bicarbonate) containing varying concentrations of the test compounds. Antiviral activity was expressed as EC50 (50% effective concentration), or test compound concentration required to reduce virus-induced cytopathicity after seven days by 50% compared to the untreated control.
In some cases, the compounds had considerable cytotoxicity against HEL cells, which made determination of the EC50's difficult. In these cases, an estimate of the percent protection at the compound concentration indicated in the previous columns is given.

HIV-2 (ROD) = assay: Inhibition of HIV-2 syncytium formation in CEM cells; type: cell-based; details: for EC50: Human immunodeficiency virus 2, CCRF-CEM, read-out: EC50 (μg/ml) HIV-2; for HIV-2 % Protection: protection of CEM cells against virus-induced cytopathicity at the compound concentration in the previous column
Source text: as §1, §2, §3

[1] = Human immunodeficiency virus 1, CCRF-CEM, HIV-1 (IIIB) infected CEM cells, syncytium formation, day four post infection
[2] = Human betaherpesvirus 5, 168 h, CMV-infected HEL cells, virus-induced cytopathicity after seven days
[3] = HIV-2 (ROD) infected CEM cells, syncytium formation, day four post infection
[4] = Human immunodeficiency virus 1, IIIB, CCRF-CEM
[5] = Human betaherpesvirus 5, HEL, 168 h
[6] = HIV-1 (IIIB) infected CEM cells, syncytium formation, day four post infection
[7] = CMV-infected HEL cells, virus-induced cytopathicity after seven days

Molecule | EC50 (HIV-1 (IIIB); [1]) [µg/mL] | IC50 (CMV Davis strain; [2]) [µg/mL] | Antiviral % Inhibition Davis strain (CMV Davis strain) [%] | EC50 (HIV-2 (ROD); [3]) [µg/mL] | melting point [°C] | HIV-1 % Protection (HIV-1 (IIIB)) [%] | HIV-2 % Protection (HIV-2 (ROD)) [%] | EC50 (HIV-1 (IIIB); [4]) [µg/mL] | IC50 (CMV Davis strain; [5]) [µg/mL] | EC50 (HIV-2 (ROD)) [µg/mL] | EC50 (μg/ml) HIV-1 (HIV-1 (IIIB); [6]) [µg/mL] | Antiviral IC50 (μg/ml) Davis strain (CMV Davis strain; [7]) [µg/mL] | EC50 (μg/ml) HIV-2 (HIV-2 (ROD); [3]) [µg/mL]
O=[N+]([O-])c1cc(CS(=O)(=O)c2cccc[n+]2[O-])ccc1Cl [Compound 64, 2-[[(3-nitro-4-chlorophenyl)methyl]sulfonyl]pyridine-N-oxide] | 1.5 (≈ 4.56 µM) | > 5 | 10.0 | 1.9 (≈ 5.78 µM) | 168 to 170 | – | – | – | – | – | – | – | –
Cc1ccc(C)c(C(C)S(=O)(=O)c2cccc(Cl)[n+]2[O-])c1 (stereo not shown) [Compound 76, 2-[1-(2,5-dimethylphenyl)ethylsulfonyl]-6-chloropyridine-N-oxide] | 0.9 (≈ 2.76 µM) | > 9.1 | – | 2.4 (≈ 7.37 µM) | 197 to 200 | – | – | – | – | – | – | – | –
Cc1ccc(C)c(C(C)S(=O)(=O)c2cc(C)cc(C)[n+]2[O-])c1 (stereo not shown) [Compound 81, 2-[1-(2,5-dimethylphenyl)ethylsulfonyl]-4,6-dimethylpyridine-N-oxide] | ≥ 20 | 8.6 (≈ 26.9 µM) | – | > 20 | 201 to 204 | 37.5 | 0.0 | – | – | – | – | – | –
Cc1ccc(C)c(C(Cl)S(=O)(=O)c2ccccn2)c1 (stereo not shown) [Compound 106, 2[(2,5-dimethylphenyl)chloromethylsulfonyl]pyridine] | 0.9 (≈ 3.04 µM) | 20 (≈ 67.6 µM) | – | > 4 | 117 to 119 | – | 0.0 | – | – | – | – | – | –
COc1ccc(CSc2cc(C(C)(C)C)cc[n+]2[O-])cc1 [Compound 134, 4-(1,1-dimethylethyl)-2-[(4-methoxyphenyl)methylthio]pyridine-N-oxide] | > 20 | > 50 | – | > 100 | – | 0.0 | 0.0 | – | – | – | – | – | –
[O-][n+]1cccc(Cl)c1[S+]([O-])Cc1ccccc1 (stereo not shown) [Compound 136, 3-chloro-2-[(phenylmethyl)sulfinyl]pyridine-N-oxide] | 1.5 (≈ 5.6 µM) | 4.7 (≈ 17.6 µM) | – | > 4 | – | – | 0.0 | – | – | – | – | – | –
Cc1ccc[n+]([O-])c1SCc1c(Cl)cccc1Cl [Compound 137, 2-[[(2,6-dichlorophenyl)methyl]thio]-3-methyl-pyridine-N-oxide] | – | – | – | – | – | 0.0 | 0.0 | > 20 | 28 (≈ 93.3 µM) | > 20 | – | – | –
Cc1ccc[n+]([O-])c1[S+]([O-])Cc1c(Cl)cccc1Cl (stereo not shown) [Compound 138, 2-[[(2,6-dichlorophenyl)methyl]sulfinyl]-3-methyl-pyridine-N-oxide] | > 100 | > 50 | 20.0 | > 100 | – | 0.0 | 0.0 | – | – | – | – | – | –
Cc1ccc[n+]([O-])c1S(=O)(=O)Cc1c(Cl)cccc1Cl [Compound 139, 2-[[(2,6-dichlorophenyl)methyl]sulfonyl]-3-methyl-pyridine-N-oxide] | > 20 | 43 (≈ 129 µM) | – | > 20 | – | 0.0 | 0.0 | – | – | – | – | – | –
Cc1ccc(C)c(CSc2cccc[n+]2C)c1 [Compound 142, 2[[(2,5-dimethylphenyl)methyl]thio]-1-methylpyridinium chloride] | – | – | – | – | – | 0.0 | 0.0 | > 4 | 3.4 | > 4 | – | – | –
O=[N+]([O-])c1cccnc1SCc1ccccc1 [Compound 146, 2-benzylthio-3-nitropyridine] | – | – | – | – | – | – | 37.5 | 2.3 (≈ 9.34 µM) | 40 (≈ 162 µM) | ≥ 20 | – | – | –
Cc1ccc(C)c(CSc2ccccn2)c1 [Compound 148, 2-((2,5-dimethylphenyl)methylthio) pyridine] | – | – | – | – | – | – | – | > 20 | 0.4 (≈ 1.74 µM) | > 20 | – | – | –
Cc1ccc(C)c(CS(=O)(=O)c2ccccn2)c1 [Compound 150, 2-(2,5-dimethylbenzylsulfonyl)pyridine] | 3.25 (≈ 12.4 µM) | > 50 | 20.0 | 20 (≈ 76.5 µM) | – | – | – | – | – | – | – | – | –
[O-][n+]1cc(Cl)ccc1SCc1ccccc1 [Compound 151, 5-chloro-2(benzylthio)pyridine-N-oxide] | – | – | 20.0 | – | – | 0.0 | 0.0 | > 20 | > 20 | > 20 | – | – | –
CN1CCCC(CSc2cccc[n+]2[O-])C1 (stereo not shown) [Compound 156, 2-(N-methyl-3-piperidylmethylthio)pyridine-N-oxide] | – | – | 0.0 | – | – | – | 0.0 | 16 (≈ 67.1 µM) | > 50 | > 100 | – | – | –
Cc1ccc(C)c(CSc2ccccn2)c1.Cl [Compound 157, 2-(2,5-dimethylphenylmethylthio)pyridine hydrochloride] | 6 | > 50 | 0.0 | ≥ 20 | – | – | 37.5 | – | – | – | – | – | –
N#CC(=Cc1ccccc1)Sc1cccc[n+]1[O-] [Compound 158, 2-(1-cyano-2-phenylethenethio) pyridine-N-oxide] | – | – | – | – | – | 0.0 | 0.0 | – | – | – | >4 | 3.6 | >4
COc1ccc(C=C(C#N)Sc2cccc[n+]2[O-])cc1 [Compound 159, 2-[1-cyano-2-(p-methoxyphenyl)ethenethio]pyridine-N-oxide] | – | – | – | – | – | 0.0 | 25.0 | > 20 | 10 (≈ 35.2 µM) | > 20 | – | – | –
COc1cc(C=C(C#N)Sc2cccc[n+]2[O-])cc(OC)c1OC [Compound 160, 2-[1-cyano-2-(3,4,5-trimethoxyphenyl)ethenethio]pyridine-N-oxide] | – | – | – | – | – | 0.0 | 0.0 | > 20 | 7 (≈ 20.3 µM) | > 20 | – | – | –
Cc1ccc(C)c(C(C)S(=O)(=O)c2ccccn2)c1 (stereo not shown) [Compound 161, 2-[1-(2,5-dimethylphenyl)ethylsulfonyl]pyridine] | 9.5 (≈ 34.5 µM) | 38 (≈ 138 µM) | – | > 100 | – | – | 0.0 | – | – | – | – | – | –
ethyl-N-[4-(pyridyl-N-oxide-2-sulfonylmethyl)phenylcarbonyl]carbamate [Compound 60] | – | – | 0.0 | – | – | – | – | – | – | – | 40.00 | >50 | 17.0
